We go through one compound from US7851467B2, “Carbamate compounds as 5-HT4 receptor agonists” (Theravance, Inc., priority 2005, dated 2010).

This assay deals with T1, human 5-HT4(c) receptor (Homo sapiens, UniProt Q13639).
T1 construct: expressed in transfected cells; host or cells: HEK-293
The assay can be described thus: Whole-cell cAMP accumulation flashplate assay with HEK-293 cells expressing human 5-HT4(c) receptors. Type of assay: cell-based. The following applies: cell line (1) having a density of about 0.5-0.6 μmol/mg protein, read-out: pEC50 value (converted). As for the experimental part: Assay 3: Whole-Cell cAMP Accumulation Flashplate Assay with HEK-293 Cells Expressing Human 5-HT4(c) Receptors
In this assay, the functional potency of a test compound was determined by measuring the amount of cyclic AMP produced when HEK-293 cells expressing 5-HT4 receptors were contacted with different concentrations of test compound.
HEK-293 (human embryonic kidney) cells stably-transfected with cloned human 5-HT4(c) receptor cDNA were prepared expressing the receptor at two different densities: (1) at a density of about 0.5-0.6 pmol/mg protein, as determined using a [^3H]-GR113808 membrane radioligand binding assay, and (2) at a density of about 6.0 pmol/mg protein. […]
Cells were grown to roughly 60-80% confluency. […] The cells were counted with a Coulter counter (count above 8 μm, flask yield was 1-2×10^7 cells/flask). […]
Cells were grown and prepared as described above. […] Bound radioactivity was quantified by scintillation proximity spectroscopy using the Topcount (Packard BioScience Co., Meriden, Conn.).
The amount of cAMP produced per mL of reaction was extrapolated from the cAMP standard curve, according to the instructions provided in the manufacturer's user manual. Data were analyzed by nonlinear regression analysis with the GraphPad Prism Software package using the 3-parameter sigmoidal dose-response model (slope constrained to unity). […]
(Changes in cAMP serve as a functional read-out for many G protein-coupled receptors.)

T1 sequence (Q13639 1-380 isoform Q13639-4): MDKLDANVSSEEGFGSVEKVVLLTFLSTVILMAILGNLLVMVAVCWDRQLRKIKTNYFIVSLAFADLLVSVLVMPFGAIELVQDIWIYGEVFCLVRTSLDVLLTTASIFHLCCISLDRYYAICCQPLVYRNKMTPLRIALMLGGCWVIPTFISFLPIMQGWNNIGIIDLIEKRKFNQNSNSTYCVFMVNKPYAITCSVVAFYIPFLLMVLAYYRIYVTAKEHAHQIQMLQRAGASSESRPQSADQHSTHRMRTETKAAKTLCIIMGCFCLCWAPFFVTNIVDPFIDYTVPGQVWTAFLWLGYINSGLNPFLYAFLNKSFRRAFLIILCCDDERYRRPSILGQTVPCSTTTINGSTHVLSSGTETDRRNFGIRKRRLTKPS

`CC(C)n1c(=O)n(C(=O)N[C@H]2C[C@H]3CC[C@@H](C2)N3CCCOC(=O)N2CCN(C(=O)C3CCCO3)CC2)c2ccccc21` (stereo partly drawn) [Example 1, 4-(tetrahydrofuran-2-carbonyl)piperazine-1-carboxylic acid 3-{(1S,3R,5R)-3-[(3-isopropyl-2-oxo-2,3-dihydrobenzoimidazole-1-carbonyl)amino]-8-aza-bicyclo[3.2.1]oct-8-yl}propyl ester]: the EC50 was 3.98 nM.
